Laboratory results reported in the NIST ThermoML archive (doi:10.1021/acs.jced.6b00021).
“And” between values parts separate entries of the source, which are not always exact repeats. Identical values can stand only once.

Details: Liquid; for self diffusion coefficient / electrical conductivity / viscosity: 101.33 kPa; for self diffusion coefficient: NMR spin-echo technique; for mass density: 100 kPa, Vibrating tube method; for electrical conductivity: Alternating current cell with electrodes

CC1COC(=O)O1 (centres undefined) [4-methyl-1,3-dioxolan-2-one]
Details	mass density [kg/m3]	self diffusion coefficient
251.94 K	–	1.29e-10 m2/s
251.99 K	–	1.25e-10 m2/s and 1.24e-10 m2/s
262.92 K	–	1.95e-10 m2/s and 1.9e-10 m2/s
262.93 K	–	1.96e-10 m2/s and 1.93e-10 m2/s
273.09 K	–	2.76e-10 m2/s and 2.73e-10 m2/s
273.15 K	1226.25	2.73e-10 m2/s and 2.65e-10 m2/s
278.15 K	1220.9	–
278.27 K	–	3.12e-10 m2/s
278.28 K	–	3.19e-10 m2/s
278.51 K	–	3.19e-10 m2/s
283.15 K	1215.55	–
283.25 K	–	3.7e-10 m2/s and 3.63e-10 m2/s
283.27 K	–	3.7e-10 m2/s and 3.68e-10 m2/s
288.26 K	–	4.06e-10 m2/s and 4.1e-10 m2/s and 4.07e-10 m2/s
293.15 K	1204.89	–
293.21 K	–	4.58e-10 m2/s
293.27 K	–	4.62e-10 m2/s and 4.6e-10 m2/s
298.05 K	–	5.14e-10 m2/s
298.14 K	–	5.02e-10 m2/s and 5.01e-10 m2/s
298.15 K	1199.58	–
298.19 K	–	5.24e-10 m2/s and 5.21e-10 m2/s
298.21 K	–	5.23e-10 m2/s
298.26 K	–	5.24e-10 m2/s
303.15 K	1194.27	–
303.18 K	–	5.99e-10 m2/s and 5.89e-10 m2/s
303.19 K	–	5.98e-10 m2/s and 5.86e-10 m2/s
308.21 K	–	6.71e-10 m2/s and 6.58e-10 m2/s
308.27 K	–	6.74e-10 m2/s and 6.54e-10 m2/s
308.78 K	–	6.55e-10 m2/s
308.86 K	–	6.59e-10 m2/s
313.15 K	1183.67	–
313.39 K	–	7.44e-10 m2/s and 7.43e-10 m2/s
313.41 K	–	7.32e-10 m2/s and 7.46e-10 m2/s
318.26 K	–	8.17e-10 m2/s and 8.06e-10 m2/s
318.4 K	–	8.14e-10 m2/s and 8.18e-10 m2/s
323.15 K	1173.08	–
323.2 K	–	8.97e-10 m2/s and 9.06e-10 m2/s
323.25 K	–	9.05e-10 m2/s and 8.92e-10 m2/s
323.65 K	–	8.96e-10 m2/s and 8.76e-10 m2/s
323.67 K	–	8.78e-10 m2/s and 8.71e-10 m2/s
333.08 K	–	1.05e-09 m2/s
333.13 K	–	1.04e-09 m2/s
333.15 K	1162.5	–
342.8 K	–	1.22e-09 m2/s
342.86 K	–	1.18e-09 m2/s
343.15 K	1151.92	–
352.52 K	–	1.4e-09 m2/s
352.61 K	–	1.42e-09 m2/s
352.68 K	–	1.35e-09 m2/s
353.15 K	1141.33	–
363.15 K	1130.73	–

C[N+](C)(C)CCO.O=S(=O)([N-]S(=O)(=O)C(F)(F)F)C(F)(F)F [choline bis(trifluoromethylsulfonyl)imide]
Details	mass density [kg/m3]
313.15 K	1513.41
315.65 K	1511.12
318.15 K	1508.82
323.15 K	1504.27
328.15 K	1499.7
333.15 K	1495.16
338.15 K	1490.66
343.15 K	1486.16
348.15 K	1481.69
353.15 K	1477.22
358.15 K	1472.78
363.15 K	1468.35

CCn1cc[n+](C)c1.CS(=O)(=O)[O-] [1-ethyl-3-methylimidazolium methanesulfonate]
Details	electrical conductivity	mass density [kg/m3]	self diffusion coefficient [m2/s]
273.15 K	0.0413 S/m	–	–
278.15 K	0.0656 S/m	1256.19	–
280.65 K	–	1254.4	–
283.15 K	0.0988 S/m	1252.62	–
285.65 K	–	1250.84	–
288.15 K	0.142 S/m	1249.07	–
293.15 K	0.197 S/m	1245.55	–
294 K	–	–	7.63e-12
296.58 K	–	–	9e-12
296.62 K	–	–	9.07e-12
298.15 K	0.265 S/m and 0.259 S/m	1242.06	–
298.98 K	–	–	1.02e-11
299.01 K	–	–	1.03e-11
300.65 K	0.298 S/m	–	–
301.63 K	–	–	1.23e-11
301.77 K	–	–	1.24e-11
303.15 K	0.346 S/m and 0.34 S/m	1238.7	–
304 K	–	–	1.35e-11
304.01 K	–	–	1.34e-11
305.65 K	0.386 S/m	–	–
306.53 K	–	–	1.52e-11
306.58 K	–	–	1.55e-11
308.15 K	0.435 S/m	–	–
310.65 K	0.488 S/m	–	–
313.15 K	0.553 S/m	1231.94	–
313.69 K	–	–	2.21e-11
313.74 K	–	–	2.21e-11
323.15 K	0.821 S/m	1225.21	–
323.7 K	–	–	3.42e-11
323.73 K	–	–	3.43e-11
333.15 K	1.15 S/m	1218.52	–
333.42 K	–	–	5.06e-11
333.52 K	–	–	5.07e-11
343.15 K	1.55 S/m	1211.87	–
343.66 K	–	–	7.13e-11
343.73 K	–	–	7.12e-11
353.15 K	1.99 S/m	1205.26	–
353.4 K	–	–	9.71e-11
353.61 K	–	–	9.7e-11
363.15 K	–	1198.74	–

viscosity
Details	Concentric cylinders viscometry	Falling or rolling sphere viscometry
273.15 K	1250.4 mPa·s	–
278.15 K	749.3 mPa·s	–
283.15 K	475.8 mPa·s	472.2 mPa·s and 472.4 mPa·s
285.65 K	–	379 mPa·s
288.15 K	317.1 mPa·s	314.8 mPa·s and 315.7 mPa·s
293.15 K	219.7 mPa·s and 220.2 mPa·s and 220 mPa·s	218.9 mPa·s and 219.3 mPa·s
296.15 K	–	181.5 mPa·s and 179.5 mPa·s and 179.8 mPa·s
298.15 K	158.2 mPa·s	159.8 mPa·s and 160.6 mPa·s
300.15 K	–	138.8 mPa·s [middle of 4 runs]
303.15 K	115.6 mPa·s	116.3 mPa·s
305.65 K	–	101.8 mPa·s and 102 mPa·s
308.15 K	–	89.34 mPa·s and 89.37 mPa·s
313.15 K	66.71 mPa·s	69.08 mPa·s and 69.13 mPa·s and 69.74 mPa·s
323.15 K	43.42 mPa·s	44.52 mPa·s and 44.54 mPa·s
333.15 K	30.27 mPa·s	30.49 mPa·s and 30.68 mPa·s
343.15 K	22.11 mPa·s	21.93 mPa·s and 21.98 mPa·s
353.15 K	16.66 mPa·s	16.42 mPa·s and 16.46 mPa·s
363.15 K	12.94 mPa·s	12.73 mPa·s and 12.81 mPa·s

CCn1cc[n+](C)c1.O=S(=O)([O-])C(F)(F)F [1-ethyl-3-methylimidazolium trifluoromethanesulfonate]
Falling or rolling sphere viscometry
Details	viscosity
268.15 K	172.2 mPa·s and 172.4 mPa·s
273.15 K	130.7 mPa·s and 130.6 mPa·s
278.15 K	102.3 mPa·s and 102 mPa·s
283.15 K	80.26 mPa·s and 80.24 mPa·s
293.15 K	52.45 mPa·s
298.15 K	43.54 mPa·s [middle of 4 runs]
300.65 K	39.67 mPa·s and 39.64 mPa·s
303.15 K	36.27 mPa·s
305.65 K	33.3 mPa·s and 33.29 mPa·s
308.15 K	30.75 mPa·s and 30.7 mPa·s
313.15 K	26.21 mPa·s and 26.2 mPa·s
323.15 K	19.57 mPa·s and 19.48 mPa·s
333.15 K	15.02 mPa·s
343.15 K	11.78 mPa·s and 11.73 mPa·s
348.15 K	10.51 mPa·s

Details	electrical conductivity	mass density
273.15 K	0.346 S/m	1407.23 kg/m3
278.15 K	0.433 S/m	1402.99 kg/m3
283.15 K	0.534 S/m	1398.75 kg/m3
288.15 K	0.647 S/m	–
293.15 K	0.772 S/m	1390.28 kg/m3 and 1390.27 kg/m3
298.15 K	0.915 S/m and 0.91 S/m	1386.04 kg/m3 and 1386.06 kg/m3
303.15 K	1.06 S/m	1381.85 kg/m3
313.15 K	1.42 S/m	1373.47 kg/m3 and 1373.45 kg/m3
323.15 K	1.82 S/m	1365.14 kg/m3
333.15 K	2.25 S/m	1356.86 kg/m3
343.15 K	2.76 S/m	1348.64 kg/m3
353.15 K	3.29 S/m	1340.46 kg/m3
363.15 K	–	1332.32 kg/m3

CCn1cc[n+](C)c1.N#C[B-](C#N)(C#N)C#N [1-ethyl-3-methylimidazolium tetracyanoborate]
Falling or rolling sphere viscometry
Details	viscosity
263.15 K	111.3 mPa·s
264.05 K	108.4 mPa·s
265.65 K	96.35 mPa·s and 96.52 mPa·s
268.15 K	81 mPa·s [middle of 6 runs]
273.15 K	58.91 mPa·s and 58.87 mPa·s and 60.07 mPa·s
278.15 K	44.77 mPa·s
283.15 K	34.55 mPa·s and 34.65 mPa·s and 34.73 mPa·s
288.15 K	27.4 mPa·s and 27.3 mPa·s and 27.14 mPa·s
293.15 K	22.35 mPa·s [middle of 6 runs]
296.15 K	19.62 mPa·s [middle of 4 runs]
298.15 K	18.51 mPa·s [middle of 4 runs]
300.15 K	17.16 mPa·s and 16.93 mPa·s
303.15 K	15.47 mPa·s and 15.64 mPa·s and 15.62 mPa·s
313.15 K	11.25 mPa·s [middle of 5 runs]
323.15 K	8.531 mPa·s and 8.521 mPa·s and 8.518 mPa·s
333.15 K	6.68 mPa·s
338.15 K	5.992 mPa·s and 6.022 mPa·s
343.15 K	5.399 mPa·s and 5.4 mPa·s and 5.395 mPa·s
348.15 K	4.921 mPa·s and 4.92 mPa·s
353.15 K	4.458 mPa·s and 4.455 mPa·s and 4.454 mPa·s

Details	mass density [kg/m3]
273.15 K	1056.29
283.15 K	1048.19
293.15 K	1040.2
298.15 K	1036.25
303.15 K	1032.31
313.15 K	1024.52
323.15 K	1016.81
333.15 K	1009.19
343.15 K	1001.66
353.15 K	994.2
363.15 K	986.83
